Consider 25 compounds from patent US8969552B2, “Arylsulfonylmethyl or arylsulfonamide substituted aromatic compounds suitable for treating disorders that respond to modulation of the dopamine D3 receptor” (AbbVie Deutschland GmbH & Co. KG, priority 2004, dated 2015).

Structures are written as SMILES. Counter-ions that a name gives are not always drawn.

Assay [1] addresses T1, human dopamine D2L receptors (long isoform) (Homo sapiens, UniProt P14416).
T1 construct: expressed in transfected cells; membranes
Kind of assay: Dopamine D2L receptor binding, [125I] iodospiperone displacement. As to conditions: membranes of HEK-293 cells stably expressing human D2L receptor; 0.01 nM [125I] iodospiperone; 25° C., 60 minutes; read-out: Ki(D2)*. As to the method: (§1) The substance to be tested was either dissolved in methanol/Chremophor® (BASF-AG) or in dimethyl sulfoxide and then diluted with water to the desired concentration.
(§2) Each assay mixture was run in triplicate.
The incubation buffer contained 50 mM tris, 120 mM NaCl, 5 mM KCl, 2 mM CaCl2, 2 mM MgCl2 and 0.1% bovine serum albumin. The buffer was adjusted to pH 7.4 with HCl.
(§3) Measurement and Analysis:
(§4) After having been incubated at 25° C. for 60 minutes, the assay mixtures were filtered through a Whatman GF/B glass fiber filter under vacuum using a cell collecting device. The filters were transferred to scintillation viols using a filter transfer system. After 4 ml of Ultima Gold® (Packard) have been added, the samples were shaken for one hour and the radioactivity was then counted in a Beta-Counter (Packard, Tricarb 2000 or 2200CA). The cpm values were converted into dpm using a standard quench series and the program belonging to the instrument.
(§5) The inhibition curves were analyzed by means of iterative nonlinear regression analysis using the Statistical Analysis System (SAS) which is similar to the “LIGAND” program described by Munson and Rodbard.
(§6) The results of the receptro binding studies are expressed as receptor binding constants Ki(D2) and Ki(D3), respectively, as herein before described, and given in table 2.

The target of assay [2] is T2, human dopamine D3 receptors (Homo sapiens, UniProt P35462).
T2 construct: expressed in transfected cells; membranes
T2 sequence (P35462 whole entry): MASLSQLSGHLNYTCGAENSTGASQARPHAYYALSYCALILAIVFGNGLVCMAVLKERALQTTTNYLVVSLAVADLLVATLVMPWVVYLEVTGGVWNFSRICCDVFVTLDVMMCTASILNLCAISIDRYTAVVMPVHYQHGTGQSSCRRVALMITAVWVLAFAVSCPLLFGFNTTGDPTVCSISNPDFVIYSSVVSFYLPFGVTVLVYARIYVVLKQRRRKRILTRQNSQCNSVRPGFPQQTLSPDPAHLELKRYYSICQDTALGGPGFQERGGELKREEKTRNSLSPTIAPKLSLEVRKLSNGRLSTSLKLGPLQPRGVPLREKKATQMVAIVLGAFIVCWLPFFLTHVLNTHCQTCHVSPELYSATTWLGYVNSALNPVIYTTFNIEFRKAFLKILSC
Kind of assay: Dopamine D3 receptor binding, [125I]-iodosulpride displacement. As to conditions: for Ki: membranes of HEK-293 cells stably expressing human D3 receptor, 0.1 nM [125I]-iodosulpride, 25° C., 60 minutes; for Ki(D2)*/Ki(D3)*: selectivity ratio of receptor binding constants D2 versus D3. As to the method:
as §1, §2
The incubation buffer contained 50 mM tris, 120 mM NaCl, 5 mM KCl, 2 mM CaCl2, 2 mM MgCl2 and 0.1% bovine serum albumin, 10 μM quinolone and 0.1% ascorbic acid (prepared fresh daily). The buffer was adjusted to pH 7.4 with HCl.
as §3, §4, §5, §6

T1 sequence (P14416 whole entry, canonical isoform): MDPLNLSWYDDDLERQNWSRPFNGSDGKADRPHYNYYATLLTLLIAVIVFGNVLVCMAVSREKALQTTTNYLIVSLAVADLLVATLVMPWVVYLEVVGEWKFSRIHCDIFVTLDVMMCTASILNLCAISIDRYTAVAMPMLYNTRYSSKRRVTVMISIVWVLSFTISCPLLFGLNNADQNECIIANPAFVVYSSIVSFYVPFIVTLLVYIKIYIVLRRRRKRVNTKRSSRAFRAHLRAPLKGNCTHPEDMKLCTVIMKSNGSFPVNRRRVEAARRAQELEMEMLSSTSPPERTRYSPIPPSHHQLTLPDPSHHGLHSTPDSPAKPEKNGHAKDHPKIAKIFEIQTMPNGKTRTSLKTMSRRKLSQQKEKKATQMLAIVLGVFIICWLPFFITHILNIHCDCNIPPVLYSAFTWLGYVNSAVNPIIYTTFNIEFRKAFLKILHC

Usually Ki stands for the equilibrium dissociation constant of an inhibitor or competing ligand from its target. On to `CCCNC1COc2cc(NS(=O)(=O)c3ccc(C(C)C)cc3)cnc2C1` (stereo not drawn) [Example 35, 4-Isopropyl-N-(3-propylamino-3,4-dihydro-2H-pyrano[3,2-b]pyridin-7-yl)benzenesulfonamide], for which the inhibitory constant (Ki) in assay [1] was found to be 12300 nM; in assay [2], 30.4 nM. The “Ki(D2)*/Ki(D3)*” value in assay [2] was 406.
As to `C=CCN[C@H]1CCc2cc(NS(=O)(=O)c3ccc(C(C)C)cc3)ccc2C1.Cl` [Example 7, N—((S)-6-Allylamino-5,6,7,8-tetrahydro-naphthalen-2-yl)-4-isopropyl-benzenesulfonamide, hydrochloride], the Ki in assay [1] was found to be 152 nM. Also, in assay [2], the affinity, expressed as Ki, was 1.97 nM and the “Ki(D2)*/Ki(D3)*” value is 77.
As to `CCCN[C@@H]1CCc2cc(NS(=O)(=O)c3ccc(C(C)C)cc3)ccc2C1` [Example 3, 4-Isopropyl-N—((R)-6-propylamino-5,6,7,8-tetrahydro-naphthalen-2-yl)-benzenesulfonamide], the Ki in assay [1] is 10.3 nM. Also, in assay [2], affinity was put at a Ki of 0.34 nM and the “Ki(D2)*/Ki(D3)*” value is given as 30.
The corresponding values for `CCCN(CCC)[C@H]1CCc2cc(NS(=O)(=O)c3ccc(C(C)C)cc3)ccc2C1.Cl` [Example 30, N—((S)-6-Dipropylamino-5,6,7,8-tetrahydro-naphthalen-2-yl)-4-isopropylbenzenesulfonamide, hydrochloride] are 11.3 nM, 0.39 nM and 29.
For `CCC(=O)N1CCC[C@@H]2Cc3cc(NS(=O)(=O)c4ccc(C(C)C)cc4)ccc3C[C@H]21` (relative stereo) [Example 22, trans-4-Isopropyl-N-(1-propionyl-1,2,3,4,4a,5,10,10a-octahydro-benzo[g]quinolin-7-yl)benzenesulfonamide], the inhibitory constant (Ki) was 1830 nM in assay [1] and 19 nM in assay [2]. Moreover, the “Ki(D2)*/Ki(D3)*” value in assay [2] is given as 96.
Turning to `CCCN[C@H]1CCc2cc(NS(=O)(=O)c3ccc([C@H](C)C(F)(F)F)cc3)ccc2C1` [Example 42, N—((S)-6-Propylamino-5,6,7,8-tetrahydro-naphthalen-2-yl)-4-((S)-2,2,2-trifluoro-1-methylethyl)-benzenesulfonamide], the values for the inhibitory constant (Ki) in assay [1] and in assay [2] were 514 nM and 1.95 nM, respectively. Moreover, the “Ki(D2)*/Ki(D3)*” value in assay [2] was determined as 263.
As for `CCN[C@H]1CCc2cc(NS(=O)(=O)c3ccc(C(C)C)cc3)ccc2C1.Cl` [Example 64, N—((S)-6-Ethylamino-5,6,7,8-tetrahydro-naphthalen-2-yl)-4-isopropyl-benzenesulfonamide, hydrochloride], in assay [2], the Ki was found to be 3.4 nM and the “Ki(D2)*/Ki(D3)*” value came to 70.
For `CCCN[C@H]1CCc2cc(NS(=O)(=O)c3ccc(C(C)C(F)F)cc3)ccc2C1.Cl` (stereo partly drawn) [Example 77, 4-(2,2-Difluoro-1-methyl-ethyl)-N—((S)-6-propylamino-5,6,7,8-tetrahydro-naphthalen-2-yl)benzenesulfonamide, hydrochloride], the inhibition constant (Ki) in assay [1] was found to be 501 nM. Moreover, in assay [2], affinity was put at a Ki of 1.65 nM and the “Ki(D2)*/Ki(D3)*” value stood at 304.
For the compound `CCCN[C@H]1CCc2cc(NS(=O)(=O)c3ccc(OC(F)F)cc3)ccc2C1.Cl` [Example 46, 4-Difluoromethoxy-N—((S)-6-propylamino-5,6,7,8-tetrahydro-naphthalen-2-yl)benzenesulfonamide, hydrochloride], in assay [2], the Ki was 2.5 nM and the “Ki(D2)*/Ki(D3)*” value stood at 100.
Take `CCCN[C@H]1CCc2cc(NS(=O)(=O)c3ccc(C(C)C)cc3)ccc2C1.Cl` [Example 8, 4-Isopropyl-N—((S)-6-propylamino-5,6,7,8-tetrahydro-naphthalen-2-yl)-benzenesulfonamide, hydrochloride]: the inhibitory constant (Ki) in assay [1] was 50.6 nM. For the same compound, in assay [2], the Ki came out at 0.5 nM and the “Ki(D2)*/Ki(D3)*” value amounted to 102.
For the compound `CC(C)c1ccc(S(=O)(=O)Nc2ccc3c(c2)CC[C@H](NCCCF)C3)cc1.Cl` [Example 68, N—[(S)-6-(3-Fluoro-propylamino)-5,6,7,8-tetrahydro-naphthalen-2-yl]-4-isopropylbenzenesulfonamide, hydrochloride], in assay [2], the affinity corresponds to a Ki of 2 nM and the “Ki(D2)*/Ki(D3)*” value was found to be 42.
Turning to `CCCN[C@H]1CCc2cc(NS(=O)(=O)c3ccc(CC(F)(F)F)cc3)ccc2C1.Cl` [Example 47, N—((S)-6-Propylamino-5,6,7,8-tetrahydro-naphthalen-2-yl)-4-(2,2,2-trifluoro-ethyl)benzenesulfonamide, hydrochloride], in assay [2], the inhibitory constant (Ki) turned out to be 5.1 nM and the “Ki(D2)*/Ki(D3)*” value turned out to be 70.
As to `CCN[C@H]1CCc2cc(NS(=O)(=O)c3ccc(N4CCCC4)cc3)ccc2C1.Cl` [Example 70, N—((S)-6-Ethylamino-5,6,7,8-tetrahydro-naphthalen-2-yl)-4-pyrrolidin-1-ylbenzenesulfonamide, hydrochloride], in assay [2], the affinity, expressed as Ki, was 3.6 nM and the “Ki(D2)*/Ki(D3)*” value came to 61.
On to `CCCN[C@H]1CCc2cc(NS(=O)(=O)c3ccc(OC(F)F)cc3)ccc2C1` [Example 74, 4-Difluoromethoxy-N—((S)-6-propylamino-5,6,7,8-tetrahydro-naphthalen-2-yl)benzenesulfonamide, hydrochloride], for which the Ki in assay [1] worked out at 250 nM.
For the compound `CCCN[C@H]1CCc2cc(NS(=O)(=O)c3ccc(CCCF)cc3)ccc2C1` [Example 51, 4-(3-Fluoro-propyl)-N—((S)-6-propylamino-5,6,7,8-tetrahydro-naphthalen-2-yl)benzenesulfonamide], in assay [2], affinity was put at a Ki of 1.7 nM and the “Ki(D2)*/Ki(D3)*” value worked out at 56.
`CCCN[C@H]1CCc2cc(NS(=O)(=O)c3ccc(C4CC4(F)F)cc3)ccc2C1.Cl` (stereo partly drawn) [Example 48, 4-(2,2-Difluoro-cyclopropyl)-N—((S)-6-propylamino-5,6,7,8-tetrahydro-naphthalen-2-yl)benzenesulfonamide, hydrochloride]: in assay [2], the Ki came out at 1.5 nM and the “Ki(D2)*/Ki(D3)*” value came out at 128.
Taken in the same sequence, the figures for `CCN[C@H]1CCc2cc(NS(=O)(=O)c3ccc(OC(F)(F)F)cc3)ccc2C1.Cl` [Example 63, N—((S)-6-Ethylamino-5,6,7,8-tetrahydro-naphthalen-2-yl)-4-trifluoromethoxybenzenesulfonamide, hydrochloride] were 30.9 nM and 40.
With `CCCN[C@@H]1CCc2cc(NS(=O)(=O)c3ccc(CCCF)cc3)ccc2C1.Cl` [Example 58, 4-(3-Fluoro-propyl)-N—((R)-6-propylamino-5,6,7,8-tetrahydro-naphthalen-2-yl)benzenesulfonamide, hydrochloride], in assay [2], the inhibition constant (Ki) was 0.15 nM and the “Ki(D2)*/Ki(D3)*” value is recorded as 229.
On to `CCCN[C@H]1CCc2cc(NS(=O)(=O)c3ccc(C(C)=O)cc3)ccc2C1` [Example 60, 4-Acetyl-N—((S)-6-propylamino-5,6,7,8-tetrahydro-naphthalen-2-yl)-benzenesulfonamide], for which, in assay [2], the inhibition constant Ki was 9.4 nM and the “Ki(D2)*/Ki(D3)*” value turned out to be 274.
Regarding `CCCN[C@H]1CCc2cc(NS(=O)(=O)c3ccc([C@@H](C)CF)cc3)ccc2C1.Cl` [Example 56, 4-((R)-2-Fluoro-1-methyl-ethyl)-N—((S)-6-propylamino-5,6,7,8-tetrahydro-naphthalen-2-yl)benzenesulfonamide, hydrochloride], in assay [2], the Ki came to 2.4 nM and the “Ki(D2)*/Ki(D3)*” value is 161.
As to `CCCN[C@H]1CCc2cc(NS(=O)(=O)c3ccc(N(C)C)cc3)ccc2C1.Cl` [Example 50, 4-Dimethylamino-N—((S)-6-propylamino-5,6,7,8-tetrahydro-naphthalen-2-yl)benzenesulfonamide, hydrochloride], in assay [2], the inhibitory constant (Ki) turned out to be 1.8 nM and the “Ki(D2)*/Ki(D3)*” value was determined as 95.
In the case of `CCCN[C@H]1CCc2cc(NS(=O)(=O)c3ccc(N4CCCC4)cc3)ccc2C1.Cl` [Example 49, N—((S)-6-Propylamino-5,6,7,8-tetrahydro-naphthalen-2-yl)-4-pyrrolidin-1-ylbenzenesulfonamide, hydrochloride], in assay [2], the Ki stood at 1.3 nM and the “Ki(D2)*/Ki(D3)*” value stood at 63.
Consider `CCCN[C@H]1CCc2cc(NS(=O)(=O)c3ccc(CCC)s3)ccc2C1.Cl` [Example 52, 5-Propyl-thiophene-sulfonic acid ((S)-6-propylamino-5,6,7,8-tetrahydro-naphthalen-2-yl)amide, hydrochloride], for which, in assay [2], the Ki was found to be 0.7 nM and the “Ki(D2)*/Ki(D3)*” value was found to be 71.
For the compound `CCCN[C@H]1CCc2cc(NS(=O)(=O)c3ccc(C(C)(C)F)cc3)ccc2C1.O=C(O)C(F)(F)F` [Example 62, 4-(1-Fluoro-1-methyl-ethyl)-N—((S)-6-propylamino-5,6,7,8-tetrahydro-naphthalen-2-yl)benzenesulfonamide, trifluoro acetate], in assay [2], the Ki came out at 6.2 nM and the “Ki(D2)*/Ki(D3)*” value turned out to be 77.
In the case of `CCCN[C@H]1CCc2cc(NS(=O)(=O)c3ccc([C@H](C)CF)cc3)ccc2C1.Cl` [Example 55, 4-((S)-2-Fluoro-1-methyl-ethyl)-N—((S)-6-propylamino-5,6,7,8-tetrahydro-naphthalen-2-yl)benzenesulfonamide, hydrochloride], in assay [2], the affinity corresponds to a Ki of 1.7 nM and the “Ki(D2)*/Ki(D3)*” value is listed as 230.
